The data set deals with MDCK II-WT, MDCK II-MRP2, MDCK II-BCRP and MDCK II-MRP3 cells. In words: MTT cell proliferation assay. The following applies: experimentally selected concentrations. It counts as cell-based. From the text:
The effect of PEG400 on baicalin transport was investigated in MDCKII-WT, MDCKII-MRP2, MDCK II-BCRP, and MDCK II-MRP3 cell monolayer models. First, an MTT cell proliferation assay was used to evaluate the effects of baicalin as well as PEG400 concentration on […]. […] The results of the transporter experiments are shown in Figure 5 and Table 2, which indicate that the exocytosis ratio of MDCKII-WT cells in the control group for the transport of the substrate baicalin was 2.58 ± 0.27. This implies that the transport of baicalin through the cell membrane is mediated by a transporter. For the MDCK-WT cell model, the exocytosis ratios of baicalin decreased to 1.94 ± 0.27, 1.53 ± 0.14, and 1.19 ± 0.12, respectively, in response to low, medium, and high concentrations of PEG400. […] Consistent results were obtained in the MDCK II-MRP2 and MDCK II-BCRP cell models, where the percentage of baicalin efflux was reduced, from 2.45 ± 0.04 and 3.01 ± 0.05 to 2.22 ± 0.17, 1.08 ± 0.09, and 0.8 ± 0.04, respectively, and 1.59 ± 0.06, 1.02 ± 0.04, and 0.8 ± 0.02 in a concentration-dependent decrease. The results of the efflux ratio of baicalin in MDCK-WT, MDCK-MRP2, and MDCK-BCRP cell monolayers by 0.25%, 0.5%, and 1% PEG400 are shown in Figure 5f.
Figure 4 The effect diagram of cell vitality. (a,b) The effects of different concentrations of baicalin and PEG400 on the survival of MDCK II-WT cells. […]

Take `O=C(O)[C@H]1O[C@@H](Oc2cc3oc(-c4ccccc4)cc(=O)c3c(O)c2O)[C@H](O)[C@@H](O)[C@@H]1O` [BG, Baicalein-7-O-β-D-glucuronide]: the “effect on cell proliferation (MTT)” value is listed as “no significant effect on the proliferation”.
